{"source": "paper PMC8119482", "about": "“A novel dual HDAC and HSP90 inhibitor, MPT0G449, downregulates oncogenic pathways in human acute leukemia in vitro and in vivo” (Oncogenesis, 2021)", "biological_target": "T1, HDAC6 (Homo sapiens, UniProt Q9UBN7)", "T1 sequence (Q9UBN7 1-1215)": "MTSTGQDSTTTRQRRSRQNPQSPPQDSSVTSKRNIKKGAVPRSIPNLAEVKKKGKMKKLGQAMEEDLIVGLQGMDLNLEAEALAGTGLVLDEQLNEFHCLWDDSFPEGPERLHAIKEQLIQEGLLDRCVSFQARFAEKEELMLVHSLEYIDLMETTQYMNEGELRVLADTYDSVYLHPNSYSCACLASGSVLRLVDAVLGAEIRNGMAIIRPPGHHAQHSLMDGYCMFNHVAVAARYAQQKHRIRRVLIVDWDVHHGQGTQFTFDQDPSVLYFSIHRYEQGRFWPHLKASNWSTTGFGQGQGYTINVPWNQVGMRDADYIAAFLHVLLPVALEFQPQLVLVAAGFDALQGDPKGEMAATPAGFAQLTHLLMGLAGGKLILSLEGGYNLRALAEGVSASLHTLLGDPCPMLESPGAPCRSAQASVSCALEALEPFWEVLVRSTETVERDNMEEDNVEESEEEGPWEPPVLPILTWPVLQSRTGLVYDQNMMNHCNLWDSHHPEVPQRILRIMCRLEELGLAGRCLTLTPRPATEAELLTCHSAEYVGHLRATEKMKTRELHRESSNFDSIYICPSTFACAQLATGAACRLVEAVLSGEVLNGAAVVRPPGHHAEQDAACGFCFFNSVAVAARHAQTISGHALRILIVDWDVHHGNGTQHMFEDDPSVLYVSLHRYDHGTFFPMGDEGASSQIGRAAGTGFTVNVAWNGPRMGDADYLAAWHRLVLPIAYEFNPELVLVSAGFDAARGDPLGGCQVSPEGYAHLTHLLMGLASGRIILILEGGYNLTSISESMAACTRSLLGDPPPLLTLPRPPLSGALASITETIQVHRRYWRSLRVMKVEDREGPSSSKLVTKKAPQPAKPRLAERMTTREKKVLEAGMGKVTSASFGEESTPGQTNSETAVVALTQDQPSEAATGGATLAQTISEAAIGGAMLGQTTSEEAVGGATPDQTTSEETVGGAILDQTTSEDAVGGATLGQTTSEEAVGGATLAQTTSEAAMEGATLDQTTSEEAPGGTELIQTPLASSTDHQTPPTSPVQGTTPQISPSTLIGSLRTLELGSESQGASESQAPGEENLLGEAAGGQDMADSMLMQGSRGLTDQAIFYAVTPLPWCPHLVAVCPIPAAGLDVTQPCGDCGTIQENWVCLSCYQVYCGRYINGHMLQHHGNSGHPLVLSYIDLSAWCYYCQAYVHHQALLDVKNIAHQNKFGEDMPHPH", "assay": "HDAC isoform activity assay (Reaction Biology Corp.); values not shown in main text", "type": "biochemical"}
{"smiles": "CC(C)c1cc(C(=O)N(C)c2ccc(NC(=O)CCCCCCCC(=O)NO)cc2)c(O)cc1O", "note": "[compound 26, MPT0G449]", "values": [{"measurement": "HDAC isoform activity assay (Reaction Biology Corp.); values not shown in main t", "result": "HDAC6 was selected because MPT0G499 exhibited the most potent inhibition."}]}
